Patent US6004928A, “Method of treating hyperlipidemia” (Biomeasure, Incorporated, priority 1998, dated 1999)
pKi: −log10 of the molar value. Positions of bridges follow the written chain, without caps; N, C: chain ends. Non-standard residues stand in square brackets, D forms with d. Residues, ends and D or L forms follow the SMILES beside them.

Tests used:
[1] = test system: fatty (fa/fa) Zucker rats; experiment: Reduction of glycerol and triglycerides, chronic treatment in fatty Zucker rats; format: in vivo, rat
Source text: The obese (fa/fa) Zucker and its derivative in the Zucker diabetic fatty (ZDF/Drt-fa) are excellent models of diabetes-induced dyspilidemia (Shafrir, E., Diabetes/Metabolism Rev. 8:179-208 (1992); Peterson, R. G., et al., ILAR News 32:16-19 (1990)). The animals develop progressive hypertriglyceridemia and hypercholesterolemia.
Eleven male fatty Zucker rats weighing about 450 grams were randomly divided into 2 groups and their initial body weights recorded. The animals were housed in pairs in a normal 12 hour light/dark cycle at 20±2° C. and fed a standard laboratory rat diet (Beekay rat and mouse diet, Bantin & Kingman, Hull, Humberside, U.K.) overnight ad libitum.
For the group assigned to receive drug treatment, the rats received BIM-23268C at 3 mg/kg, by subcutaneous injection twice a day at 10:00 a.m. and 5:00 p.m. The other group was treated with a subcutaneous injection of 0.1 ml/100 g of saline twice a day at 10:00 a.m. and 5:00 p.m. The animals were subjected to the BIM-23268 or saline treatment for a total of six days.
On the last day of treatment (day 6), food was removed at 5:00 p.m. and the rats fasted overnight. At 9:00 a.m. the next day, the animals were subjected to a glucose challenge, given as a 0.8 gram/kg of glucose orally. Periodic 400 ul of blood samples were taken from the tail vein (Peterson, R. G., ILAR News 32:16-19 (1990)) at 60 min. and 30 min. before, and at 30, 60, 90, and 120 min. after the administration of the glucose challenge (08. gram/kg orally). Aprotinin (Traysylol, Bayer UK, Hayward's Heath, W. Sussex, U.K.) and heparin (Sigma Chemical Co., Poole, Dorset, U.K.) were added to the blood samples to a final concentration of 400 KIU/ml and 100 units/ml, respectively. Plasma fractions were prepared from these samples by centrifugation at 400×G in a microfuge, for the estimation of triglycerides and glycerol. Samples were then stored at -80° C. until assayed.
Plasma glycerol and triglycerides were determined using the Sigma Enzymatic (Tinder) calorimetric assay kit (Cat #337-B, Sigma Chemical Co., Poole, Dorset, U.K.) and measuring absorbance at 540 nm in a spectrophotometer.

hSSTR-3 = biological target: T1, hSSTR-3 (Homo sapiens, UniProt P32745); experiment: Somatostatin receptor binding assay, [125I-Tyr11]somatostatin-14, transfected CHO-K1 membranes; details: 0.05 nM [125I-Tyr11]somatostatin-14, 30 min at 30° C.
T1 construct: expressed in transfected cells; crude membranes
T1 sequence (P32745 whole entry): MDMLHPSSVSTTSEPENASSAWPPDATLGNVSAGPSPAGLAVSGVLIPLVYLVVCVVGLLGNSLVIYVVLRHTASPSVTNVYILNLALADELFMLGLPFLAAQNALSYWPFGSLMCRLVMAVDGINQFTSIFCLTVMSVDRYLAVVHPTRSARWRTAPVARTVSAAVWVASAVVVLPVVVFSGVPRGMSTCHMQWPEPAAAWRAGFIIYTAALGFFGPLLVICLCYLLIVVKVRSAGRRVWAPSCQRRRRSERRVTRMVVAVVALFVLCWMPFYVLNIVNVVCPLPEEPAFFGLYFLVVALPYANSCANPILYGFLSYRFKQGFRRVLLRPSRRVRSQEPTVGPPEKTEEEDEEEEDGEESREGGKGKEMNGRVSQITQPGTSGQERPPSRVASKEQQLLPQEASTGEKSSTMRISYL
Method: (§1) CHO-K1 (ovary, Chinese hamster) cells were obtained from ATCC (ATCC No. CCL 61). The cells were grown and maintained in Ham's F12 media (Gibco BRL, Grand Island, N.Y.) supplemented with 10% fetal bovine serum under standard tissue culture conditions. For transfection, the cells were seeded at a density 1×10^6 /60-cm plate (Baxter Scientific Products, McGraw Park, Ill.). […] CHO-K1 clonal cell lines that have stably inherited the transfected DNA were selected for growth in Ham's F12 media containing 10% fetal bovine serum and 0.5 mg/ml of G418 (Sigma). The cells were ring-cloned and expanded in the same media for analysis.
(§2) Transfected cell lines expressing the human SSTR receptors were clonally expanded in culture and used in the following SSTR binding protocol.
(§3) Crude membranes were prepared by homogenization of the transfected cells in 20 ml of ice-cold 50 mM Tris-HCl with a POLYTRON homogenizer (setting 6, 15 sec). Buffer was added to obtain a final volume of 40 ml, and the homogenate was centrifuged in a Sorval SS-34 rotor at 39,000 g for 10 min at 0-4° C. The resulting supernatant was decanted and discarded. The pellet was rehomogenized in ice-cold buffer, diluted, and centrifuged as before. The final pellet was resuspended in the 10 mM Tris HCl and held on ice for the receptor binding assay.
The final assay volume was 0.3 ml. […]

hSSTR-4 = biological target: T2, hSSTR-4 (Homo sapiens, UniProt P31391); experiment: as above; details: 0.05 nM [125I-Tyr11]somatostatin-14, 30 min at 30° C.
T2 construct: expressed in transfected cells; crude membranes
T2 sequence (P31391 whole entry): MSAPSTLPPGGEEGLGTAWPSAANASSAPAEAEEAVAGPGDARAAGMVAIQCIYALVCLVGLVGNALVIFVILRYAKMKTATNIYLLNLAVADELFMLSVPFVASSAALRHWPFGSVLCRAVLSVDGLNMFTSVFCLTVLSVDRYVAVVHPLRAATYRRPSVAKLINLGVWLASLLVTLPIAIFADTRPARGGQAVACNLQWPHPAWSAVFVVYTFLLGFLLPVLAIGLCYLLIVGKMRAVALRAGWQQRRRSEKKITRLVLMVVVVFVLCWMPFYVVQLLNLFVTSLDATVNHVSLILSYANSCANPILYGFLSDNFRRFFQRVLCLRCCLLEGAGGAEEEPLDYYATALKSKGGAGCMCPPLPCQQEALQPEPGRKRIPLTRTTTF
Method: as §1, §2, §3
The final assay volume was 0.3 ml. […]

hSSTR-2 = biological target: T3, hSSTR-2 (Homo sapiens, UniProt P30874); experiment: as above; details: 0.05 nM [125I-Tyr11]somatostatin-14, 30 min at 30° C.
T3 construct: expressed in transfected cells; crude membranes
T3 sequence (P30874 whole entry): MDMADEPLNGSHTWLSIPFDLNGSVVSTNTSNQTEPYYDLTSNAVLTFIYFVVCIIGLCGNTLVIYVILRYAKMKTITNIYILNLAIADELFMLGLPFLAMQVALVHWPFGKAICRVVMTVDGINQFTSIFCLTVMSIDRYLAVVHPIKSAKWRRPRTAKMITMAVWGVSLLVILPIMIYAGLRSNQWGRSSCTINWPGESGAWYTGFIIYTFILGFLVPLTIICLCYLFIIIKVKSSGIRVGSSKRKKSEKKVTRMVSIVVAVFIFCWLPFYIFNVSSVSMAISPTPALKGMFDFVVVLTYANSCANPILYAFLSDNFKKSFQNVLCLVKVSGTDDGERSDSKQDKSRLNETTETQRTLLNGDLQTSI
Method: as §1, §2, §3
The final assay volume was 0.3 ml. […]

hSSTR-5 = biological target: T4, hSSTR-5 (Homo sapiens, UniProt P35346); experiment: as above; details: 0.05 nM [125I-Tyr11]somatostatin-14, 30 min at 30° C.
T4 construct: expressed in transfected cells; crude membranes
T4 sequence (P35346 whole entry): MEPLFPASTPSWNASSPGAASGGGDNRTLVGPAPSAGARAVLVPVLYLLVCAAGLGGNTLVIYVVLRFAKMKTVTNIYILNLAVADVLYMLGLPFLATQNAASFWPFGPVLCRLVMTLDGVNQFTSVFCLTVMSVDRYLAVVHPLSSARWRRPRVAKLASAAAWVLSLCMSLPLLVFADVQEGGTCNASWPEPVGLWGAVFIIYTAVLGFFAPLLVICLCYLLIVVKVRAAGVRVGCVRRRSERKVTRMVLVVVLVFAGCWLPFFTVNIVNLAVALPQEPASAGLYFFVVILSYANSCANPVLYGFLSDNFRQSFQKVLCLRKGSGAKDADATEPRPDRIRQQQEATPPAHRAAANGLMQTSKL
Method: as §1, §2, §3
The final assay volume was 0.3 ml. […]

normal humans = details: cited from earlier work
alloxan diabetic dogs = details: cited from earlier work
acromegalics = details: cited from earlier work
[2] = 3 mg/kg s.c. twice a day, 6 days, after oral glucose challenge 0.8 gram/kg, vs saline group
[3] = 3 mg/kg s.c. twice a day, 6 days, samples 30 and 60 min before oral glucose challenge

For `C[C@@H](O)[C@@H]1NC(=O)[C@H](CCCCN)NC(=O)[C@@H](Cc2c[nH]c3ccccc23)NC(=O)[C@H](Cc2ccccc2)NC(=O)[C@H](Cc2ccccc2)NC(=O)[C@@H](N)CSSC[C@@H](C(N)=O)NC(=O)[C@H](Cc2ccccc2)NC1=O` [BIM-23268, H-Cys-Phe-Phe-D-Trp-Lys-Thr-Phe-Cys-NH2] (H-CFF[dW]KTFC-NH2; disulfide 1-8 (inferred)), the “plasma glycerol through the 2-hour test period” value [1, 2] was “significantly lower”, the “plasma triglycerides through the 2-hour test period” value [1, 2] was “significantly lower” and the plasma glycerol [1, 3] was “significantly lowered”. The plasma triglycerides [1, 3] was “significantly lowered” and the hypertriglyceridemia ([1]; 6-day treatment period at the prescribed dose) was “effective in reducing hypertriglyceridemia”.
Work on `C[C@@H](O)[C@@H]1NC(=O)[C@H](CCCCN)NC(=O)[C@@H](Cc2c[nH]c3ccccc23)NC(=O)[C@H](Cc2ccc(O)c(I)c2)NC(=O)[C@H](Cc2ccccc2)NC(=O)[C@@H](N)CSSC[C@@H](C(N)=O)NC(=O)[C@H](Cc2ccccc2)NC1=O` [BIM-23313, H-Cys-Phe-Tyr(I)-D-Trp-Lys-Thr-Phe-Cys-NH2] yielded a pKi (hSSTR-3) of 7.59, a pKi (hSSTR-4) of 7.26 and a pKi (hSSTR-2) of 8.32. The pKi (hSSTR-5) was 9.52.
For `C[C@H](N)C(=O)NCC(=O)N[C@H]1CSSC[C@@H](C(=O)O)NC(=O)[C@H](CO)NC(=O)[C@H]([C@@H](C)O)NC(=O)[C@H](Cc2ccccc2)NC(=O)[C@H]([C@@H](C)O)NC(=O)[C@H](CCCCN)NC(=O)[C@H](Cc2c[nH]c3ccccc23)NC(=O)[C@H](Cc2ccccc2)NC(=O)[C@H](Cc2ccccc2)NC(=O)[C@H](CC(N)=O)NC(=O)[C@H](CCCCN)NC1=O` [somatostatin], the plasma triglyceride concentrations (normal humans) is given as “reduce plasma triglyceride concentrations”, the plasma triglyceride concentrations (alloxan diabetic dogs) is given as “reduce plasma triglyceride concentrations” and the plasma triglyceride concentrations (acromegalics) is given as “reduce plasma triglyceride concentrations”.
